Numbers after ± are expanded uncertainties.
Conditions: Liquid, Closed cell (Static) method

Row | Compound | vapor or sublimation pressure (272.33 K) [kPa] | vapor or sublimation pressure (279.64 K) [kPa] | vapor or sublimation pressure (299.34 K) [kPa] | vapor or sublimation pressure (302.24 K) [kPa] | vapor or sublimation pressure (312.33 K) [kPa] | vapor or sublimation pressure (317.63 K) [kPa] | vapor or sublimation pressure (271.88 K) [kPa] | vapor or sublimation pressure (295.53 K) [kPa] | vapor or sublimation pressure (300.47 K) [kPa] | vapor or sublimation pressure (303.11 K) [kPa] | vapor or sublimation pressure (306.5 K) [kPa] | vapor or sublimation pressure (310.48 K) [kPa] | vapor or sublimation pressure (312.64 K) [kPa] | vapor or sublimation pressure (318.16 K) [kPa]
1 | FC(F)=C(F)C(F)(F)F [hexafluoropropene] | 327.1 ± 1.4 | 420.7 ± 1.7 | 763.3 ± 2.2 | 825.7 ± 2.4 | 1077.3 ± 2.8 | 1232.1 ± 3.1 |  |  |  |  |  |  |  | 
2 | FC(F)(F)C1(F)OC1(F)F (centres undefined) [2,2,3-trifluoro-3-(trifluoromethyl)oxirane] |  |  |  |  |  |  | 302.2 ± 1.5 | 649.9 ± 2.1 | 745.6 ± 2.2 | 798.5 ± 2.3 | 874.7 ± 2.5 | 970.1 ± 2.7 | 1024.9 ± 2.9 | 1175.3 ± 3.1

Source: the NIST ThermoML archive (doi:10.1021/je900400v)
